Measurements taken from US20220175820A1 (PIERRE FABRE DERMO-COSMETIQUE, priority 2019, published 2022).
Marks after values point to notes of the source that are not given here.

Legend:
[1] = tested on: transcription factor NFκB; assay: NFκB activation stimulated by TNFα in HaCat keratinocytes with luciferase reporter gene; format: cell-based, human; conditions: TNFα 0.3 ng/ml; for NFκB activation % Inh / NFκB activation RLU Mean: 5 hours
Method: The cell line used in this study is the HaCat line (human keratinocytes) stably transfected with the luciferase reporter gene.
These cells are cultured on 24-well plates under the same conditions as in Example 1. They are then preincubated for 60 minutes with the products to be tested, added to the culture medium in the form of a solution in water. A stimulant, TNFα (0.3 ng/ml, diluted in culture medium) is added to the cultures which are then incubated for 5 hours at 37° C. […] A positive control is used in this test, dexamethasone (synthetic glucocorticoid hormone, with an antiinflammatory and immunosuppressant effect, added to the culture medium in the form of a solution in water) tested at 2 μM in the culture medium. Note that 3 independent experiments were conducted. The Bright-Glo™ agent (which induces cell lysis and thus enables luciferase release) and its substrate (luciferin) are added before reading the luminescence. The raw data are analyzed by Excel. The intergroup comparison is performed by one-way ANOVA followed by Dunnett's post-hoc test.

[2] = tested on: prostaglandin PG6KF1α production, HaCat line (human keratinocytes); assay: PG6KF1α release by HaCat keratinocytes stimulated with calcium ionophore A23187 (ELISA); format: cell-based
Method: The cell line used in this study is the HaCat line (human keratinocytes).
The cells are cultured in DMEM (Dulbecco's Modified Eagle Medium) supplemented with foetal calf serum in an environment at 37° C. and 5% CO2 on 24-well plates. They are then preincubated for 60 minutes, still at 37° C., with the products to be tested dissolved in water. A stimulant the arachidonic acid pathway is added for 5 hours. This is the stimulation phase; the stimulant is the calcium ionophore A23187 (solution in 0.01% DMSO) used at 5 μM. […] After 5 hours of stimulation, still in the same medium, the culture supernatant of each well is drawn off, centrifuged at 3000 RPM then stored at −20° C. The production of prostaglandin PG6KF1α in culture supernatant is measured with the Euromedex Elisa kit according to the supplier's instructions. Statistical analysis is performed by ANOVA followed by Dunnett's post-hoc test. Note that 3 independent experiments were conducted. The results for each product and for each dose are averaged from measurements performed on 3 wells. Thus, the control group (with no stimulant) makes it possible to quantify basal PG6KF1α production.

[3] = tested on: IL-8; assay: IL-8 production by stimulated normal human epidermal keratinocytes (atopic dermatitis model, ELISA); format: cell-based; conditions: Poly I:C, PamC3, IL-4, IL-13
Method: (§1) The study is performed on normal human epidermal keratinocytes cultured under standard conditions (37° C., 5% CO2). The culture medium is standard (keratinocyte-SFM supplemented with 0.25 ng/ml epidermal growth factor (EGF), 25 μg/ml pituitary extract and 25 μg/ml gentamycin). The test medium is the same without growth factor.
(§2) To simulate an atopic dermatitis environment, keratinocytes are preincubated for 1 hour in the medium with or without (control) the compounds to be tested, the vehicle (water) or the positive control, bafilomycin (macrolide family) at 30 nM. […] After this preincubation, keratinocytes are stimulated for 24 hours by a mixture of TLR ligands (Poly I:C and PamC3) and inflammatory cytokines (IL-4 and IL-13) added to the cells. An unstimulated control condition is also done at the same time. The cells are incubated for 24 hours.
(§3) The culture supernatants are collected, centrifuged and frozen at −80° C. TSLP and IL-8 are quantified by ELISA.
(§4) Three independent experiments are conducted. Statistical analysis is determined by one-way ANOVA followed by Dunnett's post-hoc test.

[4] = pH ranging from 4 to 10 at ambient temperature; cited from earlier work
[5] = tested on: TSLP; assay: TSLP production by stimulated normal human epidermal keratinocytes (atopic dermatitis model, ELISA); format: cell-based; conditions: Poly I:C, PamC3, IL-4, IL-13
Method: as §1, §2, §3, §4

[6] = indomethacin 0.1 μM, A23187 5 μM for 5 hours
[7] = dextran sulfate (Dextralip, 9000-20000 Da) 0.3 μg/ml
[8] = dextran sulfate (Dextralip, 9000-20000 Da) 0.3 μg/ml, listed as dextran sulfate
[9] = dextran sulfate (Dextralip, 9000-20000 Da) 3 μg/ml
[10] = dextran sulfate (Dextralip, 9000-20000 Da) 30 μg/ml
[11] = natural dextran sulfate (Dextralip, 9000-20000 Da) 0.3 mg/ml
[12] = natural dextran sulfate (Dextralip, 9000-20000 Da) 1 mg/ml
[13] = natural dextran sulfate (Dextralip, 9000-20000 Da) 3 mg/ml
[14] = natural dextran sulfate 9000-20000 Da (Dextralip) 10 μg/ml, A23187 5 μM 5 h
[15] = natural dextran sulfate 9000-20000 Da (Dextralip) 30 μg/ml, A23187 5 μM 5 h
[16] = natural dextran sulfate 9000-20000 Da (Dextralip) 100 μg/ml, A23187 5 μM 5 h
[17] = natural dextran sulfate 9000-20000 Da (Dextralip) 300 μg/ml, A23187 5 μM 5 h
[18] = natural dextran sulfate 9000-20000 Da (Dextralip) 1000 μg/ml, A23187 5 μM 5 h
[19] = natural dextran sulfate 9000-20000 Da (Dextralip) 3000 μg/ml, A23187 5 μM 5 h
[20] = synthetic dextran sulfate 4000-8000 Da 10 μg/ml, A23187 5 μM 5 h
[21] = synthetic dextran sulfate 4000-8000 Da 30 μg/ml, A23187 5 μM 5 h
[22] = synthetic dextran sulfate 4000-8000 Da 100 μg/ml, A23187 5 μM 5 h
[23] = synthetic dextran sulfate 4000-8000 Da 300 μg/ml, A23187 5 μM 5 h
[24] = synthetic dextran sulfate 4000-8000 Da 1000 μg/ml, A23187 5 μM 5 h
[25] = synthetic dextran sulfate 4000-8000 Da 3000 μg/ml, A23187 5 μM 5 h

**Q.** Which inhibition at 2 µM ([1]; Homo sapiens, HaCaT, 5 h, dexamethasone 2 μM, read-out: NFκB activation % Inh) does the source give for `C[C@@H]1C[C@H]2[C@@H]3CCC4=CC(=O)C=C[C@]4(C)[C@@]3(F)[C@@H](O)C[C@]2(C)[C@@]1(O)C(=O)CO` [Dexa, dexamethasone, reference compound] here?
**A.** > 40%

**Q.** What about the “NFκB activation % Inh” value ([1]; dexamethasone 2 μM) of the same compound?
**A.** 41%

**Q.** What about the “NFκB activation RLU Mean” value ([1]; dexamethasone 2 μM) of the same compound?
**A.** 14206 RLU

**Q.** What does the source list for `COc1ccc2c(c1)c(CC(=O)O)c(C)n2C(=O)c1ccc(Cl)cc1` [Indo, indomethacin, reference compound]?
**A.** PG6KF1α % Inh [2, 6]: 33%; PG6KF1α (pg/ml) Mean [2, 6]: 839.9 pg/mL; PG6KF1α % Inh ([2]; indomethacin 0.1 μM, A23187 5 μM for 5 hours, listed as Indomethacin): a third

**Q.** For “Sodium dextran sulphate [Dextran sulfate]”, which “Production of IL-8 at 24 h % Inh” value [3, 7] is on record?
**A.** 0%

**Q.** And the “Production of IL-8 at 24 h Mean” value [3, 7]?
**A.** 63672 pg/mL

**Q.** What about the “Production of IL-8 at 24 h % Inh” value [3, 8] of the same compound?
**A.** not sufficient to inhibit IL-8 production

**Q.** And the “Production of IL-8 at 24 h % Inh” value [3, 9]?
**A.** 82** %

**Q.** What about the “Production of IL-8 at 24 h Mean” value [3, 9] of the same compound?
**A.** 10837 pg/mL

**Q.** What about the “Production of IL-8 at 24 h % Inh” value ([3]; dextran sulfate (Dextralip, 9000-20000 Da) 3 μg/ml, listed as dextran sulfate) of the same compound?
**A.** more than 80%

**Q.** And the “Production of IL-8 at 24 h % Inh” value [3, 10]?
**A.** 100%

**Q.** And the “Production of IL-8 at 24 h Mean” value [3, 10]?
**A.** 170 pg/mL

**Q.** What about the stability in solutions [4] of the same compound?
**A.** high stability

**Q.** What about the “TSLP production at 24 h % Inh” value [5, 7] of the same compound?
**A.** 0%

**Q.** What about the “TSLP production at 24 h Mean” value [5, 7] of the same compound?
**A.** 247 pg/mL

**Q.** And the “TSLP production at 24 h % Inh” value [5, 8]?
**A.** does not induce reduction in TSLP production

**Q.** And the “TSLP production at 24 h % Inh” value [5, 9]?
**A.** 90%

**Q.** And the “TSLP production at 24 h Mean” value [5, 9]?
**A.** 34 pg/mL

**Q.** And the “TSLP production at 24 h % Inh” value [5, 10]?
**A.** 96%

**Q.** And the “TSLP production at 24 h Mean” value [5, 10]?
**A.** 19 pg/mL

**Q.** And the “NFκB activation % Inh” value [1, 11]?
**A.** does not reduce NFκB activation

**Q.** What about the “NFκB activation RLU Mean” value [1, 11] of the same compound?
**A.** 27024 RLU

**Q.** What about the “NFκB activation % Inh” value ([1]; natural dextran sulfate (Dextralip, 9000-20000 Da) 0.3 mg/ml, listed as Dex S.) of the same compound?
**A.** −13%

**Q.** And the “NFκB activation % Inh” value [1, 12]?
**A.** does not reduce NFκB activation

**Q.** And the “NFκB activation RLU Mean” value [1, 12]?
**A.** 23229 RLU

**Q.** What about the “NFκB activation % Inh” value ([1]; natural dextran sulfate (Dextralip, 9000-20000 Da) 1 mg/ml, listed as Dex S.) of the same compound?
**A.** 3%

**Q.** What about the “NFκB activation % Inh” value [1, 13] of the same compound?
**A.** 42%

**Q.** What about the “NFκB activation RLU Mean” value [1, 13] of the same compound?
**A.** 13836 RLU

**Q.** What about the “PG6KF1α % Inh” value [2, 14] of the same compound?
**A.** 36%

**Q.** And the “PG6KF1α (pg/ml) Mean” value [2, 14]?
**A.** 1878.6 pg/mL

**Q.** And the “PG6KF1α % Inh” value [2, 15]?
**A.** 23%

**Q.** And the “PG6KF1α (pg/ml) Mean” value [2, 15]?
**A.** 2113.4 pg/mL

**Q.** What about the “PG6KF1α % Inh” value [2, 16] of the same compound?
**A.** 14%

**Q.** And the “PG6KF1α (pg/ml) Mean” value [2, 16]?
**A.** 2287.5 pg/mL

**Q.** And the “PG6KF1α % Inh” value [2, 17]?
**A.** 32%

**Q.** What about the “PG6KF1α (pg/ml) Mean” value [2, 17] of the same compound?
**A.** 1950.9 pg/mL

**Q.** And the “PG6KF1α % Inh” value [2, 18]?
**A.** 43%

**Q.** What about the “PG6KF1α (pg/ml) Mean” value [2, 18] of the same compound?
**A.** 1737.6 pg/mL

**Q.** What about the “PG6KF1α % Inh” value [2, 19] of the same compound?
**A.** 37%

**Q.** And the “PG6KF1α (pg/ml) Mean” value [2, 19]?
**A.** 1843.8 pg/mL

**Q.** And the “PG6KF1α % Inh” value [2, 20]?
**A.** 35%

**Q.** And the “PG6KF1α (pg/ml) Mean” value [2, 20]?
**A.** 1536.5 pg/mL

**Q.** And the “PG6KF1α % Inh” value [2, 21]?
**A.** 23%

**Q.** And the “PG6KF1α (pg/ml) Mean” value [2, 21]?
**A.** 1719.7 pg/mL

**Q.** And the “PG6KF1α % Inh” value [2, 22]?
**A.** 14%

**Q.** And the “PG6KF1α (pg/ml) Mean” value [2, 22]?
**A.** 1848.5 pg/mL

**Q.** And the “PG6KF1α % Inh” value [2, 23]?
**A.** 29%

**Q.** What about the “PG6KF1α (pg/ml) Mean” value [2, 23] of the same compound?
**A.** 1626.6 pg/mL

**Q.** And the “PG6KF1α % Inh” value [2, 24]?
**A.** 40%

**Q.** What about the “PG6KF1α (pg/ml) Mean” value [2, 24] of the same compound?
**A.** 1462.5 pg/mL

**Q.** What about the “PG6KF1α % Inh” value [2, 25] of the same compound?
**A.** 39%

**Q.** And the “PG6KF1α (pg/ml) Mean” value [2, 25]?
**A.** 1486.2 pg/mL
